Values belong to the molecule of their own block, whether it stands above or below them.
Columns and labels:
[1] = target: T1, Antithrombin-III (Homo sapiens, UniProt P01008); experiment: (§1) Antithrombin III (ATIII)-mediated anti-Xa activity was determined
[2] = target: Prothrombin (Homo sapiens, UniProt P00734); experiment: In vitro anti-thrombin activity was determined
[3] = target: T1, Antithrombin-III; experiment: In vitro antithrombin III (ATIII)-mediated anti-Xa activity was determined
[4] = In vitro half life in rat; settings: in vivo
[5] = target: T1, Antithrombin-III; experiment: as §1; remark: listed apart in the source

T1 sequence (P01008 whole entry): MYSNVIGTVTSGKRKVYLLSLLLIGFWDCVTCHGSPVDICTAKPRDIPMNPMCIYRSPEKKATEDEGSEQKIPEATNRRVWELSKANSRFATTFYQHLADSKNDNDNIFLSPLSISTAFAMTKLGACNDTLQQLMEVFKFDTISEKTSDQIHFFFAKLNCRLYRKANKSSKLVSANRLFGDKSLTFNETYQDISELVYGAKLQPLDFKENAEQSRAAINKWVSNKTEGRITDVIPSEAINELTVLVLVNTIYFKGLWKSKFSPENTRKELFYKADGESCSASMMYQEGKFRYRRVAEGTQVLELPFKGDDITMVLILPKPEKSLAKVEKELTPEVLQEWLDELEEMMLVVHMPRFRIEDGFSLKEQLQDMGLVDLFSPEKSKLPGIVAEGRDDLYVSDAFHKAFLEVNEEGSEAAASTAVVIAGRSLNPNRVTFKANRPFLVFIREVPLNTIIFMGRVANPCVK

Activity [1]: 1160 U mg-1
SMILES: CO[C@@H]1OC(COS(=O)(=O)O)[C@H](O[C@@H]2OC(C(=O)O)[C@H](O[C@@H]3OC(COS(=O)(=O)O)[C@H](O[C@@H]4OC(C(=O)O)[C@H](O[C@@H]5OC(COS(=O)(=O)O)[C@@H](O)[C@@H](OS(=O)(=O)O)C5OS(=O)(=O)O)[C@@H](OC)C4OS(=O)(=O)O)[C@@H](OS(=O)(=O)O)C3OS(=O)(=O)O)[C@@H](OC)C2OS(=O)(=O)O)[C@@H](OS(=O)(=O)O)C1OS(=O)(=O)O (stereo not given in full)

IC50 [2]: 350 nM
Activity [3]: 885 U mg-1
half-life [4]: 1.5 h
SMILES: CO[C@H]1O[C@H](COS(=O)(=O)O)[C@@H](O[C@@H]2O[C@@H](C(=O)O)[C@@H](O[C@H]3O[C@H](COS(=O)(=O)O)[C@@H](O[C@@H]4O[C@H](C(=O)O)[C@@H](O[C@H]5O[C@H](COS(=O)(=O)O)[C@@H](OCCOCCOCCOCCNC(=O)c6ccc(NC(=O)CSC[C@H](NS(=O)(=O)c7ccc8ccccc8c7)C(=O)NC(Cc7ccc(C(=N)N)cc7)C(=O)N7C=CCCC7)cc6)[C@H](OS(=O)(=O)O)[C@H]5OS(=O)(=O)O)[C@H](OC)[C@H]4OS(=O)(=O)O)[C@H](OS(=O)(=O)O)[C@H]3OS(=O)(=O)O)[C@H](OC)[C@H]2OS(=O)(=O)O)[C@H](OS(=O)(=O)O)[C@H]1OS(=O)(=O)O (stereo not given in full)

IC50 [5]: 570 nM
SMILES: N=C(N)c1ccc(C[C@@H](NC(=O)CNS(=O)(=O)c2ccc3ccccc3c2)C(=O)N2CCCCC2)cc1
